Assay results taken from article PMC11585924, “Direct measurements of neurosteroid binding to specific sites on GABAA receptors” (British journal of pharmacology, 2024).
Entries after “also recorded” stand apart in the source; their conditions may differ.

Legend:
[1] = molecular target: T1, ELIC-α1^W246LGABAAR (Homo sapiens, UniProt P14867, W273L); test: biochemical; type: binding
Experimental: ELIC-α1GABAAR was expressed and purified according to a previously published protocol ([Q. Chen et al., 2018]). The purified protein was aliquoted and stored at −80°C. Mutagenesis was performed as described in previous reports ([Kinde et al., 2016]) by oligonucleotide-directed mutagenesis using Phu polymerase (Thermo Fisher Scientific, Waltham, MA, USA) verified by sequencing. ELIC-α1GABAAR was expressed in OverExpress™ C43(D3) E. coli, derived from Rosetta™(DE3) cells under double selection with kanamycin and chloramphenicol for ELIC-α1GABAAR.
One hundred microlitres of purified ELIC-α1GABAAR (0.3 μM in Buffer A + 0.015% DDM) was transferred into a 50-μl window quartz cuvette (Starna Cells, Atascadero, CA, USA), which was placed in a cuvette holder maintained at 4°C. […] Two microlitres of NaI (AK Scientific, Union City, CA, USA; 5-M stock prepared in 0.1-Mm sodium hydrosulfite [Sigma-Aldrich, St. Louis, MO, USA]) was added to the protein (final concentration = 100 mM) and incubated for 10 min to reduce the fluorescence emission from hydrophilic tryptophans. To measure the concentration–dependent effects of NS on tryptophan fluorescence, 1 μl of NS from each 100× stock solution was sequentially added to the NaI-equilibrated protein and thoroughly mixed to achieve concentrations from 0.01 to 50 μM. […]

[2] = molecular target: α1β3 GABAA receptors; design: method as in Tateiwa et al., 2023; settings: ref Tateiwa et al., 2023; read-out: apparent Kd; cited from earlier work
[3] = molecular target: T1, ELIC-α1^W246LGABAAR; test: Inhibition of MQ290 FRET by NS in W246L receptors; type: binding; settings: 30 μM NS; MQ290 1 μM
Experimental: (§1) One hundred microlitres of ELIC-α1GABAAR (0.3 μM) was transferred into a 50-μl window quartz cuvette maintained at 4°C, and NaI was added to the protein sample to a final concentration of 100 mM and incubated for 10 min. MQ290 was then added at a concentration of 3 μM for 3α-OH NS inhibition curves or 1 μM for 3β-OH NS inhibition curves and incubated for 30 min. One-microlitre aliquots of 3α-OH and 3β-OH NS from their corresponding stock solutions (prepared in Buffer A + 0.015% DDM) were added to achieve concentrations between 0.01 and 30 μM. The background emission spectra of ligands alone were obtained for each ligand concentration in the absence of protein and were subtracted from the protein-ligand emission spectra to yield background subtracted data. The MQ290 FRET spectra for different ligand concentrations were estimated using the method described above. The 370-nm intensities of the FRET spectra were plotted against ligand concentration and fitted to a four-parameter logistic curve to obtain IC50 data (GraphPad Software version 9.4.0, San Diego, CA). Ki values were calculated using the relationship: Ki=IC50/1+LT/Kd

[4] = molecular target: T2, ELIC-α1GABAAR (Homo sapiens, UniProt P14867); test: KK200 photolabelling competition, middle-down MS; type: binding; settings: 3 μM KK200, 30 μM competitor
T2 sequence (P14867 other isoform, or with tags, fused parts or gaps): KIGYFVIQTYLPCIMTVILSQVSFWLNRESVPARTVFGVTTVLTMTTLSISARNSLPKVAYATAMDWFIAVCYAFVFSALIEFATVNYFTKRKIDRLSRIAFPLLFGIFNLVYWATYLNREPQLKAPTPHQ
T2 sequence (P0C7B7 1-198, further chain): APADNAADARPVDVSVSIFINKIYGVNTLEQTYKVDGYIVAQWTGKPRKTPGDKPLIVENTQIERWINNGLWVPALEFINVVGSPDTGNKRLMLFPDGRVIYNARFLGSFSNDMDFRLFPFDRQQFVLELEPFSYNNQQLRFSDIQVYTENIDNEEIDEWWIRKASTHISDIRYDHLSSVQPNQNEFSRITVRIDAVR
Experimental: The synthesis of the NS photolabelling reagent KK200 is detailed in previous reports ([W. W. L. Cheng et al., 2018]; [Jiang et al., 2016]). […] The samples were then irradiated in a quartz cuvette for 5 min, using a photoreactor emitting light at >320 nm ([Germann et al., 2021]). Sample preparation for tryptic digestion and analysis by LC–MS was performed as previously described ([Sugasawa et al., 2019]). Peptides were separated on a home-packed PLRP-S (Agilent, Santa Clara, CA, USA) column (10 cm × 75 μm, 300 Å) using a 135-min gradient from 10% to 90% acetonitrile and introduced to an Orbitrap-Elite mass spectrometer (Thermo Fisher Scientific, Waltham, MA, USA; RRID:SCR_020548) at 800 nl·min^−1 with a nanospray source. MS acquisition was set as an MS1 Orbitrap scan (resolution of 60,000) followed by top 20 MS2 Orbitrap scans (resolution of 15,000) using data-dependent acquisition and exclusion of singly charged precursors. Fragmentation was performed using high-energy dissociation with normalized energy of 35%. Analysis of data sets was performed using Xcalibur (Thermo Fisher Scientific, Waltham, MA, USA; RRID: SCR_014593) to manually search for TM1, TM2, TM3 or TM4 tryptic peptides with or without NS photolabelling modifications. Photolabelling efficiency was estimated by generating extracted chromatograms of unlabelled and labelled peptides, determining the area under the curve, and calculating the (area of labelled peptide/(area of unlabelled + area of labelled peptide). MS2 spectra of photolabelled TMD peptides were analysed by manual assignment of fragment ions with and without photolabelling modification.

[5] = molecular target: T2, ELIC-α1GABAAR; type: binding
Experimental: as §1
where LT is the concentration of MQ290 and Kd was determined from the MQ290 binding curve.

T1 sequence (P14867 other isoform, or with tags, fused parts or gaps W273L): as the sequence (P14867 other isoform, or with tags, fused parts or gaps) above, with W25L counted along it
T1 sequence (P0C7B7 1-198, further chain): as the sequence (P0C7B7 1-198, further chain) above

Structure (SMILES): CC(=O)[C@H]1CC[C@H]2[C@@H]3CC[C@H]4C[C@H](O)CC[C@]4(C)[C@H]3CC[C@]12C [AlloP, allopregnanolone]
- IC50 [1]: 0.5 ± 0.21 µM
- Kd [2]: 0.1 ± 0.05 µM
- inhibition of remaining MQ290 FRET signal in W246L [3]: reduced by neither
- prevention of KK200 photolabelling of TM3 (Y309) [4]: significantly different than control; also recorded: prevented
- Hill slope ([5]; 3α-OH NS, MQ290 3 μM): −1.89 ± 0.26
- mechanism of inhibition of MQ290 binding ([5]; MQ290 binding curves with 3×Kd and 30 μM NS): competitive interaction
